Assay results published in ChEMBL document CHEMBL3244274, “Antiallergic 9-oxo-11-hydroxy-5H,9H-[2]benzopyrano[4,3-g][1]benzopyrans” (J Med Chem, 1978).
In brackets after ≈: the same amount, converted by molar mass.

Columns and labels:
Rattus norvegicus [1] = assay: Antiallergic activity in adrenalectomized Sprague-Dawley rat assessed as inhibition of egg albumin-induced passive cutaneous anaphylaxis reaction at 10 mg/kg, iv after 30 mins by Evans blue staining; format: functional; conditions: 0.5 h
Ileum [2] = assay: Antiallergic activity in guinea pig ileum strips assessed as inhibition of serotonin-induced anaphylaxis; format: functional, tissue-based; conditions: Cavia porcellus
Ileum [3] = assay: Antiallergic activity in guinea pig ileum strips assessed as inhibition of bradykinin-induced anaphylaxis; format: functional, tissue-based; conditions: Cavia porcellus
Stomach [4] = assay: Antiallergic activity in rat stomach strips assessed as inhibition of PGE2-induced anaphylaxis; format: functional, tissue-based
Stomach [5] = assay: Antiallergic activity in rat stomach strips assessed as inhibition of […]-induced anaphylaxis; format: functional, tissue-based
Rattus norvegicus [6] = assay: Antiallergic activity in iv dosed adrenalectomized Sprague-Dawley rat assessed as inhibition of egg albumin-induced passive cutaneous anaphylaxis reaction after 30 mins by Evans blue staining; format: functional; conditions: 0.5 h
Ileum [7] = assay: Antiallergic activity in guinea pig ileum strips assessed as inhibition of histamine-induced anaphylaxis; format: functional, tissue-based; conditions: Cavia porcellus
[8] = Antiallergic activity in guinea pig lung tissue assessed as inhibition of SRS-A production; format: functional, tissue-based, Cavia porcellus
Stomach [9] = assay: Antiallergic activity in rat stomach strips assessed as inhibition of PGE2-induced anaphylaxis at 25 ug/ml; format: functional
Stomach [10] = assay: Antiallergic activity in rat stomach strips assessed as inhibition of […]-induced anaphylaxis at 25 ug/ml; format: functional
Stomach [11] = assay: Antiallergic activity in rat stomach strips assessed as inhibition of […]-induced anaphylaxis at 100 ug/ml; format: functional
[12] = Antiallergic activity in guinea pig lung tissue assessed as inhibition of SRS-A production at 1 ug/ml; format: functional; conditions: Cavia porcellus
Rattus norvegicus [13] = assay: Antiallergic activity in adrenalectomized Sprague-Dawley rat assessed as inhibition of egg albumin-induced passive cutaneous anaphylaxis reaction at 3 mg/kg, iv after 30 mins by Evans blue staining; format: functional; conditions: 0.5 h
Rattus norvegicus [14] = assay: Toxicity in adrenalectomized Sprague-Dawley rat at 10 mg/kg, iv; format: organism-based; design: dose 10 mg/kg, route intravenous; conditions: in vivo

Row | EC50 (Ileum [2]) | EC50 (Ileum [3]) | EC50 (Stomach [4]) | EC50 (Stomach [5]) | EC50 (Ileum [7]) | EC50 [8] | SMILES | inhibition in vivo at 10 mg/kg (Rattus norvegicus [1]) | ED50 (Rattus norvegicus [6]) | inhibition at 25 µg/mL (Stomach [9]) | inhibition at 25 µg/mL (Stomach [10]) | inhibition at 100 µg/mL (Stomach [11]) | inhibition at 1 µg/mL [12] | inhibition in vivo at 3 mg/kg (Rattus norvegicus [13]) | Activity (Rattus norvegicus [14])
1 | 11 µg/mL | 92 µg/mL | 62 µg/mL | 16 µg/mL | > 200 µg/mL | – | CC1(C)Oc2cc3oc(=O)cc([O-])c3cc2-c2ccc(OCCO)cc21.[Na+] | 87% | 0.3 mg/kg | – | – | – | – | – | –
2 | 10.2 µg/mL | 17 µg/mL | 56 µg/mL | 26 µg/mL | 55 µg/mL | – | CC1(C)Oc2cc3oc(=O)cc([O-])c3cc2-c2ccccc21.[Na+] | 67% | – | – | – | – | – | – | –
3 | 4.4 µg/mL | 51 µg/mL | 55 µg/mL | 14 µg/mL | 39 µg/mL | 28 µg/mL | COc1cc2c(cc1Br)-c1cc3c([O-])cc(=O)oc3cc1OC2(C)C.[Na+] | 33% | – | – | – | – | – | – | –
4 | – | – | – | – | – | – | CC1(C)Oc2cc3oc(=O)cc(O)c3cc2-c2ccc(F)cc21 | 60% | – | – | – | – | – | – | –
5 | > 200 µg/mL | > 200 µg/mL | > 200 µg/mL | > 200 µg/mL | > 200 µg/mL | > 200 µg/mL | O=C([O-])c1cc(=O)c2c(OCC(O)COc3cccc4oc(C(=O)[O-])cc(=O)c34)cccc2o1.[Na+].[Na+] [CROMOLYN SODIUM] | 80% | 2.9 mg/kg | – | – | – | – | – | –
6 | 15 µg/mL | 84 µg/mL | 40 µg/mL | 47 µg/mL | > 200 µg/mL | 13 µg/mL | CC1(C)Oc2cc3oc(=O)cc([O-])c3cc2-c2ccc(O)cc21.[Na+] | 61% | – | – | – | – | – | – | –
7 | 92 µg/mL | 145 µg/mL | 70 µg/mL | 17 µg/mL | 150 µg/mL | 32 µg/mL | CC1(C)Oc2cc3oc(C(=O)O)cc(=O)c3cc2-c2ccccc21.NCCO | 81% | 0.5 mg/kg | – | – | – | – | – | –
8 | 4.8 µg/mL | 17.5 µg/mL | – | – | 14.5 µg/mL | – | Cc1c2c(cc3oc(=O)cc([O-])c13)OC(C)(C)c1ccccc1-2.[Na+] | 0% | – | – | – | – | – | – | –
9 | 16 µg/mL | 9.2 µg/mL | 68 µg/mL | 23 µg/mL | 13.2 µg/mL | – | COc1ccc2c(c1)C(C)(C)Oc1cc3oc(=O)cc([O-])c3cc1-2.[Na+] | 67% | 9 mg/kg | – | – | – | – | – | –
10 | 4.7 µg/mL | 14 µg/mL | 70 µg/mL | – | 7 µg/mL | – | CCCOc1ccc2c(c1)C(C)(C)Oc1cc3oc(=O)cc([O-])c3cc1-2.[Na+] | 0% | – | – | – | – | – | – | –
11 | 10.2 µg/mL | 5.3 µg/mL | 45 µg/mL | – | 21 µg/mL | – | CC1(C)Oc2cc3oc(=O)cc([O-])c3cc2-c2ccc(Cl)cc21.[Na+] | 0% | – | – | – | – | – | – | –
12 | 0.04 µg/mL (≈ 0.139 µM) | 2 µg/mL (≈ 6.96 µM) | 25 µg/mL (≈ 87 µM) | 65 µg/mL (≈ 226 µM) | 0.04 µg/mL (≈ 0.139 µM) | < 1 µg/mL | CN1CCC(=C2c3ccccc3C=Cc3ccccc32)CC1 [CYPROHEPTADINE] | 51% | – | 54% | 33% | 74% | 62% | 30% | Toxic
